Data: ChEMBL document CHEMBL4433235, “Discovery of piperazic acid peptide deformylase inhibitors with in vivo activity for respiratory tract and skin infections” (Bioorg Med Chem Lett, 2019)
Values after ≈ are worked out from the molar mass of the structure shown.

Columns and labels:
Peptide deformylase [1] = target: T1, Peptide deformylase (Escherichia coli, UniProt Q9JN24); assay: Inhibition of Escherichia coli PDF
T1 sequence (Q9JN24 whole entry): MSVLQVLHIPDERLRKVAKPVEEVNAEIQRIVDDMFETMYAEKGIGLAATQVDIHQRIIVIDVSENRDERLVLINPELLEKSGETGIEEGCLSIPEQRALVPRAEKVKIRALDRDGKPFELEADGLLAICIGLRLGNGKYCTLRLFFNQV

[2] = Chromatographic hydrophobicity index, log D of compound at pH 7.4; assay type: physicochemical; conditions: buffer
[3] = Inhibition of Haemophilus influenzae PDF by fluorescence detection assay
Peptide deformylase [4] = target: T2, Peptide deformylase (Staphylococcus aureus, UniProt P68826); assay: Inhibition of Staphylococcus aureus PDF by fluorescence detection assay
T2 sequence (P68826 whole entry): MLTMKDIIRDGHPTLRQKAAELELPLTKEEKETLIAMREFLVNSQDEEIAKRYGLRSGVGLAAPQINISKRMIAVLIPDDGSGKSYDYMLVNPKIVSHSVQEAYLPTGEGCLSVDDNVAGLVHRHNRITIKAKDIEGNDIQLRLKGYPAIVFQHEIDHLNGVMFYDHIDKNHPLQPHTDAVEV

Staphylococcus aureus [5] = assay: Antimicrobial activity against Staphylococcus aureus Oxford; assay type: functional
[6] = Solubility of compound by chemiluminescent nitrogen detection assay; assay type: physicochemical
[7] = Inhibition of Streptococcus pneumoniae PDF by fluorescence detection assay
Haemophilus influenzae [8] = assay: Antimicrobial activity against Haemophilus influenzae Q1; assay type: functional
Streptococcus pneumoniae [9] = assay: Antimicrobial activity against Streptococcus pneumoniae 1629; assay type: functional
[10] = Inhibition of Haemophilus influenzae PDF by absorbance detection assay
Peptide deformylase [11] = target: T2, Peptide deformylase; assay: Inhibition of Staphylococcus aureus PDF by absorbance detection assay
[12] = Inhibition of Streptococcus pneumoniae PDF by absorbance detection assay
[13] = Clearance in rat at 3 mg/kg, iv; assay type: ADME, organism-based; conditions: in vivo
[14] = Cmax in rat at 5 mg/kg, po; assay type: ADME, organism-based; parameters: dose 5 mg/kg, route oral; conditions: in vivo
[15] = Volume of distribution at steady state in rat at 3 mg/kg, iv; assay type: ADME, organism-based; conditions: in vivo, read-out: Vdss
[16] = AUC in rat at 3 mg/kg, iv; assay type: ADME, organism-based; conditions: in vivo
Streptococcus pneumoniae [17] = assay: Antimicrobial activity against Streptococcus pneumoniae; assay type: functional
[18] = Oral bioavailability in rat at 5 mg/kg; assay type: ADME, organism-based; conditions: in vivo
Haemophilus influenzae [19] = assay: Antimicrobial activity against Haemophilus influenzae; assay type: functional
Staphylococcus aureus [20] = assay: Antimicrobial activity against Staphylococcus aureus; assay type: functional
[21] = AUC in rat at 5 mg/kg, po; assay type: ADME, organism-based; conditions: in vivo
[22] = Half life in rat at 3 mg/kg, iv; assay type: ADME, organism-based; conditions: in vivo
[23] = Half life in rat at 5 mg/kg, po; assay type: ADME, organism-based; conditions: in vivo
Streptococcus pneumoniae [24] = assay: Antimicrobial activity against Streptococcus pneumoniae Ery-2; assay type: functional
Streptococcus pneumoniae [25] = assay: Antimicrobial activity against Streptococcus pneumoniae Ery-2 infected in respiratory tract infection rat model assessed as log reduction in bacterial CFU at 300 mg/kg, po BID dosed 1 hr post infection and measured for 96 hrs; assay type: functional
Streptococcus pneumoniae [26] = assay: Antimicrobial activity against Streptococcus pneumoniae Ery-2 infected in respiratory tract infection rat model assessed as log reduction in bacterial CFU at 150 mg/kg, po BID dosed 1 hr post infection and measured for 96 hrs; assay type: functional

Row | SMILES | CHI [2] | MIC (Staphylococcus aureus [5]) [µg/mL] | solubility kinetic [6] [µM] | MIC (Haemophilus influenzae [8]) [µg/mL] | MIC (Streptococcus pneumoniae [9]) [µg/mL] | IC50 [10] [nM] | IC50 (Peptide deformylase [11]) [nM] | IC50 [12] [nM] | MIC90 (Streptococcus pneumoniae [17]) [µg/mL] | MIC90 (Haemophilus influenzae [19]) [µg/mL] | MIC90 (Staphylococcus aureus [20]) [µg/mL] | also measured
1 | CCC(=O)[C@@H](NC(=O)[C@@H]1CCCNN1C(=O)[C@@H](CC(=O)O)CC(C)C)C(C)C | – | – | – | – | – | – | – | – | – | – | – | Ki (Peptide deformylase [1]): 60 nM
2 | O=CN(O)C[C@@H](CC1CCCC1)C(=O)N1NCCC[C@H]1C(=O)Nc1cccc2c1COB2O | 3.2 | 2 (≈ 4.36 µM) | > 544 | 0.5 (≈ 1.09 µM) | 8 (≈ 17.5 µM) | – | – | – | – | – | – | IC50 [3]: 79 nM; IC50 (Peptide deformylase [4]): 158 nM; IC50 [7]: 40 nM
3 | CCCNC(=O)[C@@H]1CCCNN1C(=O)[C@H](CC1CCCC1)CN(O)C=O | 3.19 | 4 (≈ 10.9 µM) | > 544 | 0.5 (≈ 1.36 µM) | 4 (≈ 10.9 µM) | 5 | 11 | 3 | – | – | – | –
4 | O=CN(O)C[C@@H](CC1CCCC1)C(=O)N1NCCC[C@H]1C(=O)Nc1cnccn1 | 2.87 | 2 (≈ 4.94 µM) | > 586 | 0.25 (≈ 0.618 µM) | 8 (≈ 19.8 µM) | 3 | 1 | 0.3 | – | – | – | –
5 | O=CN(O)C[C@@H](CC1CCCC1)C(=O)N1NCCC[C@H]1C(=O)Nc1cccnn1 | 2.69 | 1 (≈ 2.47 µM) | 303 (≈ 123 µg/mL) | 0.5 (≈ 1.24 µM) | 4 (≈ 9.89 µM) | 4 | 2 | 0.6 | – | – | – | –
6 | CN(C)c1cc(NC(=O)[C@@H]2CCCNN2C(=O)[C@H](CC2CCCC2)CN(O)C=O)ncn1 | 3.38 | 0.5 (≈ 1.12 µM) | > 649 | 2 (≈ 4.47 µM) | 0.5 (≈ 1.12 µM) | – | – | – | – | – | – | IC50 [3]: 13 nM; IC50 (Peptide deformylase [4]): 1 nM; IC50 [7]: 0.3 nM
7 | Cc1nc(NC(=O)[C@@H]2CCCNN2C(=O)[C@H](CC2CCCC2)CN(O)C=O)sc1C | 4.29 | 0.25 (≈ 0.571 µM) | 381 (≈ 167 µg/mL) | 2 (≈ 4.57 µM) | 1 (≈ 2.29 µM) | 1 | 0.63 | 0.2 | 0.5 (≈ 1.14 µM) | 2 (≈ 4.57 µM) | 0.5 (≈ 1.14 µM) | clearance [13]: 49 mL/min/kg; Cmax [14]: 349 ng/mL; Vd [15]: 1.6 L/kg; AUC [16]: 1030 ng·h/mL; bioavailability [18]: 41%; AUC [21]: 700 ng·h/mL; half-life [22]: 1.1 h; half-life [23]: 3.8 h
8 | O=CN(O)C[C@@H](CC1CCCC1)C(=O)N1NCCC[C@H]1C(=O)Nc1ccccn1 | 3.71 | 0.5 (≈ 1.24 µM) | > 463 | 0.5 (≈ 1.24 µM) | 1 (≈ 2.48 µM) | 3 | 2 | 1 | – | – | – | –
9 | O=CN(O)C[C@@H](CC1CCCC1)C(=O)N1NCCC[C@H]1C(=O)N1CCCCC1 | 3.3 | 1 (≈ 2.53 µM) | > 739 | 2 (≈ 5.07 µM) | 4 (≈ 10.1 µM) | 8 | 6 | 2 | – | – | – | –
10 | CCc1nnc(NC(=O)[C@@H]2CCCNN2C(=O)[C@H](CC2CCCC2)CN(O)C=O)s1 | 3.38 | 1 (≈ 2.28 µM) | 530 (≈ 232 µg/mL) | 1 (≈ 2.28 µM) | 1 (≈ 2.28 µM) | 2 | 1 | 0.4 | 1 (≈ 2.28 µM) | 2 (≈ 4.56 µM) | 2 (≈ 4.56 µM) | clearance [13]: 20 mL/min/kg; Cmax [14]: 711 ng/mL; MIC (Streptococcus pneumoniae [24]): 0.5 µg/mL (≈ 1.14 µM); Vd [15]: 4 L/kg; AUC [16]: 2140 ng·h/mL; bioavailability [18]: 36%; Activity (Streptococcus pneumoniae [25]): 1.7 log10CFU/ml; AUC [21]: 1580 ng·h/mL; half-life [22]: 6.7 h; half-life [23]: 4.7 h; Activity (Streptococcus pneumoniae [26]): 0.8 log10CFU/ml
11 | Cc1ccc(NC(=O)[C@@H]2CCCNN2C(=O)[C@H](CC2CCCC2)CN(O)C=O)nc1 | 4.1 | 1 (≈ 2.4 µM) | > 565 | 1 (≈ 2.4 µM) | 2 (≈ 4.79 µM) | – | – | – | 2 (≈ 4.79 µM) | 4 (≈ 9.58 µM) | 1 (≈ 2.4 µM) | IC50 [3]: 25 nM; IC50 (Peptide deformylase [4]): 2 nM; IC50 [7]: 0.6 nM
12 | O=CN(O)C[C@@H](CC1CCCC1)C(=O)N1NCCC[C@H]1C(=O)Nc1ccncn1 | 2.7 | 2 (≈ 4.94 µM) | > 464 | 1 (≈ 2.47 µM) | 2 (≈ 4.94 µM) | 6 | 2 | 0.3 | 2 (≈ 4.94 µM) | 2 (≈ 4.94 µM) | 1 (≈ 2.47 µM) | –
